Test: Compound was tested for inhibition of gel-filtered platelet (GFP) aggregation induced by alpha-thrombin

Row | Compound | IC50
1 | CN[C@H](Cc1ccccc1)C(=O)N1CCCC1C(=O)N[C@H](C=O)CCCNC(=N)N (stereo partly drawn) [(S)-1-((R)-2-Methylamino-3-phenyl-propionyl)-pyrrolidine-2-carboxylic acid ((S)-1-formyl-4-guanidino-butyl)-amide] | 0.083 µM
2 | CN[C@H](Cc1ccccc1)C(=O)N1CCC[C@H]1C(=O)N[C@@H](CCCN=C(N)N)C(=O)c1nc2ccccc2s1 [RWJ-50353] | 0.032 µM

Source: BindingDB's records for doi:10.1021/jm030493t (Johnson & Johnson Pharmaceutical Research & Development, 2004)
